{"source": "patent US20090186110A1", "about": "“GUAVA EXTRACT” (priority 2005, published 2009)", "biological_target": "T1, DP-IV (Homo sapiens, UniProt P27487)", "T1 construct": "DP-IV also exists as a soluble circulating form in plasma; from tissue; host or cells: human plasma", "T1 sequence (P27487 39-766 limits assumed)": "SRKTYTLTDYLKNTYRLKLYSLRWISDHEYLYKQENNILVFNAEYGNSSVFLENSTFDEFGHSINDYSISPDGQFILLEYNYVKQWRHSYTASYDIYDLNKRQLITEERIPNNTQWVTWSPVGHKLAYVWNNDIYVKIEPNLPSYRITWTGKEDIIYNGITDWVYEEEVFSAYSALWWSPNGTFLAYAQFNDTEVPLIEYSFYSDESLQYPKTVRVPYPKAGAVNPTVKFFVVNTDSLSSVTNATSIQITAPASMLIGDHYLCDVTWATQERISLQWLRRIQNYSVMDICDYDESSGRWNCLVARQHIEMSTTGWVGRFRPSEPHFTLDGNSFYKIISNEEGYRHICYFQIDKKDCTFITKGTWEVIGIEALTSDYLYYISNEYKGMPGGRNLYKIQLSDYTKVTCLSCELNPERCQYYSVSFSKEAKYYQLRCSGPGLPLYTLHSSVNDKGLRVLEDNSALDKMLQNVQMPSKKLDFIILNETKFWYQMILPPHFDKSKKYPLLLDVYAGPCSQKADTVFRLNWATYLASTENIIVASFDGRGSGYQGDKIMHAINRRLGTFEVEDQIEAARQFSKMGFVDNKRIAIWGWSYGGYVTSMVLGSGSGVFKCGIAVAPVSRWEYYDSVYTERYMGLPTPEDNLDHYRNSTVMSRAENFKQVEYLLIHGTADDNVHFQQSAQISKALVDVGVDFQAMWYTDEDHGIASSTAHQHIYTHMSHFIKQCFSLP", "assay": "DP-IV activity colorimetric assay (Gly-Pro-4-NA substrate, human plasma)", "format": "biochemical", "method": "DP-IV activity was measured by a colorimetric assay.\nDP-IV activity is expressed as the linear change in optical density over 20 min (Δ Abs/min)."}
{"smiles": "O=c1c(O[C@@H]2OC[C@H](O)[C@H](O)[C@H]2O)c(-c2ccc(O)c(O)c2)oc2cc(O)cc(O)c12", "note": "[guaijaverin]", "values": [{"measurement": "DP-IV inhibition (result in words)", "value": "clear, dose dependent inhibition of DP-IV"}, {"measurement": "concentration that yielded a DP-IV inhibition of around 50%", "setting": "guaijaverin in HEPES buffer, tested 70-280 μg/mL", "value": "140-210 μg/mL test assay"}]}
